In patent US12653191B2, “Active compound combinations” (Bayer Aktiengesellschaft, priority 2020, dated 2026):
“And” between values parts separate entries of the source, which are not always exact repeats. Equal entries are not always repeated. Where two headings read alike, the source gives them in different places.

Assays:
Alternaria alternata = assay: in vitro-Test with fungal microorganisms, Method B (tables A13-A22); type: cell-based
Procedure, shortened: (§1)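 Steps: solvent evaporation leaves the compound coating the wells; fungus-inoculated liquid growth medium goes on top; absorbance at 600 nm is measured; incubation runs 3 to 7 days at 20° C. with 85% relative humidity. Inhibition is then read photometrically and expressed as efficacy against untreated control.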

Fusarium culmorum = assay: in vitro-Test with fungal microorganisms, Method B (tables G5-G15); type: cell-based
Procedure, shortened: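 Efficacy, relative to untreated control (0% = growth as in control, 100% = no growth), from photometric growth measurement at 600 nm after 3 to 7 days at 20° C., 85% relative humidity. Compound applied in methanol+emulsifier, solvent evaporated, then spore/mycelium-amended liquid medium added.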

Parastagonospora nodorum = assay: in vitro-Test with fungal microorganisms, Method B (tables H5-H8); type: cell-based
Experimental: (§2) Example: In Vitro-Test with Fungal Microorganisms
(§3) Wells of 96-well microtiter plates are filled with 30 μl of a preparation of test compound or compound combination in methanol+emulsifier alkylaryl-polyglycol-ether. Thereafter, the solvent is evaporated in a hood. At the next step, 200 μl of liquid growth medium is given, that has been amended with an appropriate concentration of spores or mycelium suspension of the test fungus.
(§4) With the aid of a photometer, the extinction in all wells is measured at the wavelength of 600 nm.
(§5) The microtiter plates are incubated for 3 to 7 days at 20° C. and 85% relative humidity. After the incubation inhibition of growth is determined photometrically. Efficacy is calculated in relation to the untreated control, 0% efficacy means fungal growth as high as in untreated control while 100% efficacy means no fungal growth is measured.
(§6) The data in tables A1 to A12, B1 to B14, C1 to C10, D1 to D8, E1 to E8, F1 to F11, G1 to G4, H1 to H4 and I1 to I5 were collected according to Method A. The data in tables A13 to A22, B15 to B18, C11 to C20, E9 to E16, F12 to F15, G5 to G15, H5 to H8, I6 to I11 and J1 to J11 were collected according to Method B.

Colletotrichum coccodes = assay: in vitro-Test with fungal microorganisms, Method B (tables J1-J11); type: cell-based
Procedure, shortened: as §1

Cordana musae = assay: in vitro-Test with fungal microorganisms, Method B (tables E9-E16); type: cell-based; details: single active
Procedure, shortened: as §1

Botrytis cinerea [1] = assay: in vitro-Test with fungal microorganisms, Method B (tables B15-B18); type: cell-based
Procedure, shortened: as §1

Diaporthe citri [2] = assay: in vitro-Test with fungal microorganisms, Method B (tables F12-F15); type: cell-based
Experimental: as §2, §3, §4, §5, §6

Cercospora beticola [3] = assay: in vitro-Test with fungal microorganisms, Method B (tables C11-C20); type: cell-based
Procedure, shortened: as §1

Cercospora beticola [4] = assay: in vitro-Test with fungal microorganisms, Method A (tables C1-C10); type: cell-based; details: Cercospora beticola, read-out: Efficacy %
Procedure, shortened: (§7)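 Methanol/emulsifier compound solution evaporated in well; liquid potato dextrose medium + spore or mycelium suspension added; 20° C, 85% RH, 3-5 d; photometric read 620 nm; % efficacy vs untreated.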

Diaporthe citri [5] = assay: in vitro-Test with fungal microorganisms, Method A (tables F1-F11); type: cell-based; details: Diaporthe citri, read-out: Efficacy
Procedure, shortened: as §7

Alternaria alternate = assay: in vitro-Test with fungal microorganisms, Method A (tables A1-A12); type: cell-based, Alternaria alternata; details: Alternaria, applied alone, read-out: Efficacy %
Procedure, shortened: as §7

Botrytis cinerea [6] = assay: in vitro-Test with fungal microorganisms, Method A (tables B1-B14); type: cell-based; details: Botrytis cinerea, alone, read-out: Efficacy %
Procedure, shortened: as §7

[7] = tested on: Colletotrichum lindemuthianum; assay: in vitro-Test with fungal microorganisms, Method A (tables D1-D8); type: cell-based; details: Colletotrichum lindemuthianum, mixing partner alone, read-out: Efficacy %
Procedure, shortened: as §7

[8] = tested on: Ustilago segetum var. avenae; assay: in vitro-Test with fungal microorganisms, Method B (tables I6-I11); type: cell-based; details: read-out: Efficacy %
Procedure, shortened: as §1

[9] = Cercospora beticola, read-out: Efficacy %
[10] = Cercospora beticola, single compound, read-out: Efficacy %

## Cc1nn(C)c(F)c1C(=O)Nc1ccccc1C(C)CC(C)C (stereo not shown) [(2.017) penflufen, penflufen]
Alternaria alternata; 0.2 ppm
  Efficacy: 22%
Alternaria alternata; 5 ppm
  Efficacy: 72%
Fusarium culmorum; 0.04 ppm alone
  Efficacy: 4%
Fusarium culmorum; single active compound, 0.2 ppm
  Efficacy: 10% and 2%
Fusarium culmorum; single active compound, 1 ppm
  Efficacy: 11%
Fusarium culmorum; single active compound, 5 ppm
  Efficacy: 11% and 8%
Parastagonospora nodorum; 0.04 ppm
  Efficacy: 0%
Parastagonospora nodorum; 0.2 ppm
  Efficacy: 5%
Colletotrichum coccodes; single active compound at 1 ppm
  Efficacy %: 0%
Colletotrichum coccodes; single active compound at 5 ppm
  Efficacy %: 27%
Cordana musae; 0.04 ppm
  Efficacy: 0%
Cordana musae; 0.2 ppm
  Efficacy: 0%
Cordana musae; 1 ppm
  Efficacy: 0%
Botrytis cinerea [1]; 0.04 ppm alone
  Efficacy %: 0%
Botrytis cinerea [1]; 5 ppm alone
  Efficacy %: 70%
Diaporthe citri [2]; Table F15, 0.04 ppm alone
  Efficacy: 0%
Diaporthe citri [2]; Table F15, 0.2 ppm alone
  Efficacy: 2%
Diaporthe citri [2]; Table F15, 1 ppm alone
  Efficacy: 0%
Diaporthe citri [2]; Table F15, 5 ppm alone
  Efficacy: 3%
Cercospora beticola [3]; single compound, 1 ppm
  Efficacy %: 0%

## COc1cc(C)c(C(=O)c2c(OC)ccc(Br)c2C)c(OC)c1OC [(15.016) metrafenone, metrafenone]
Alternaria alternata; 0.2 ppm
  Efficacy: 3%
Alternaria alternata; Alternaria alternata, 0.2 ppm, read-out: Efficacy
  inhibition of growth at 0.2 ppm: 3%
Alternaria alternata; Alternaria alternata, read-out: Efficacy
  inhibition of growth at 1 ppm: 6%
Alternaria alternata; Alternaria alternata, 5 ppm, read-out: Efficacy
  inhibition of growth at 5 ppm: 16%
Alternaria alternata; Alternaria alternata, single compound, read-out: Efficacy
  inhibition of growth at 1 ppm: 0%
Fusarium culmorum; Fusarium culmorum, 1 ppm, alone, read-out: Efficacy
  inhibition of growth at 1 ppm: 4%
Fusarium culmorum; Fusarium culmorum, single active compound, 0.04 ppm, read-out: Efficacy
  inhibition of growth at 0.04 ppm: 0%
Fusarium culmorum; Fusarium culmorum, single active compound, 0.2 ppm, read-out: Efficacy
  inhibition of growth at 0.2 ppm: 0%
Fusarium culmorum; Fusarium culmorum, single active compound, 1 ppm, read-out: Efficacy
  inhibition of growth at 1 ppm: 7%
Fusarium culmorum; Fusarium culmorum, single active compound, 5 ppm, read-out: Efficacy
  inhibition of growth at 5 ppm: 13%
Fusarium culmorum; single active compound, 5 ppm
  Efficacy: 13%
Parastagonospora nodorum; Parastagonospora nodorum, 0.04 ppm, read-out: Efficacy
  inhibition of growth at 0.04 ppm: 0%
Parastagonospora nodorum; Parastagonospora nodorum, 0.2 ppm, read-out: Efficacy
  inhibition of growth at 0.2 ppm: 0%
Parastagonospora nodorum; Parastagonospora nodorum, 1 ppm, read-out: Efficacy
  inhibition of growth at 1 ppm: 0%
Parastagonospora nodorum; Parastagonospora nodorum, 5 ppm, read-out: Efficacy
  inhibition of growth at 5 ppm: 32%
Colletotrichum coccodes; Colletotrichum coccodes, single active compound at 5 ppm, read-out: Efficacy %
  inhibition of growth at 5 ppm: 2%
Cordana musae; Neocordana musae, 0.04 ppm, read-out: Efficacy
  inhibition of growth at 0.04 ppm: 0%
Cordana musae; Neocordana musae, 0.2 ppm, read-out: Efficacy
  inhibition of growth at 0.2 ppm: 0%
Cordana musae; Neocordana musae, 1 ppm, read-out: Efficacy
  inhibition of growth at 1 ppm: 0%
Cordana musae; Neocordana musae, 5 ppm, read-out: Efficacy
  inhibition of growth at 5 ppm: 11%
Cercospora beticola [4]; 0.8 ppm
  inhibition of growth at 0.8 ppm: 10%
Cercospora beticola [4]; 4.0 ppm
  inhibition of growth at 4 ppm: 0%
Cercospora beticola [4]; 20.0 ppm
  inhibition of growth at 20 ppm: 0%
Diaporthe citri [5]; Table F11, 0.8 ppm alone
  inhibition of growth at 0.8 ppm: 0%
Diaporthe citri [5]; Table F11, 4.0 ppm alone
  inhibition of growth at 4 ppm: 0%
Diaporthe citri [5]; Table F11, 20.0 ppm alone
  inhibition of growth at 20 ppm: 0%
Diaporthe citri [5]; applied alone, 0.8 ppm
  inhibition of growth at 0.8 ppm: 0%
Diaporthe citri [5]; applied alone, 4.0 ppm
  inhibition of growth at 4 ppm: 10%
Diaporthe citri [5]; applied alone, 20.0 ppm
  inhibition of growth at 20 ppm: 0%
Alternaria alternate; 0.8 ppm
  inhibition of growth at 0.8 ppm: 0%
Alternaria alternate; 4 ppm
  inhibition of growth at 4 ppm: 0%
Alternaria alternate; 20 ppm
  inhibition of growth at 20 ppm: 11%
Botrytis cinerea [6]; 4.0 ppm
  inhibition of growth at 4 ppm: 0%
Botrytis cinerea [6]; 20.0 ppm
  inhibition of growth at 20 ppm: 0%
Diaporthe citri [2]; Table F12, 1 ppm alone
  Efficacy: 3%
Diaporthe citri [2]; Table F12, 5 ppm alone
  Efficacy: 0%
Diaporthe citri [2]; Table F14, 0.04 ppm alone
  Efficacy: 0%
Diaporthe citri [2]; Table F14, 0.2 ppm alone
  Efficacy: 0%
Diaporthe citri [2]; Table F14, 1 ppm alone
  Efficacy: 0%
Diaporthe citri [2]; Table F14, 5 ppm alone
  Efficacy: 0%
Cercospora beticola [3]; [9]
  inhibition of growth at 0.2 ppm: 0%
  inhibition of growth at 5 ppm: 10%
Cercospora beticola [3]; Cercospora beticola, 1 ppm, read-out: Efficacy %
  inhibition of growth at 1 ppm: 0%
Cercospora beticola [3]; [10]
  inhibition of growth at 0.2 ppm: 0%
  inhibition of growth at 5 ppm: 1%
[7]; 0.8 ppm
  inhibition of growth at 0.8 ppm: 10%
[7]; 4.0 ppm
  inhibition of growth at 4 ppm: 12%
[7]; 20.0 ppm
  inhibition of growth at 20 ppm: 21%
[8]; 0.04 ppm
  inhibition of growth at 0.04 ppm: 4%
[8]; 0.2 ppm
  inhibition of growth at 0.2 ppm: 0%
